Patent US7268125B2 (Azevan Pharmaceuticals, Inc., priority 2001, dated 2007)

What follows are molecules tested against T1, human V1a receptor (Homo sapiens, UniProt P37288) (assay: Human vasopressin V1a receptor binding assay). Conditions: hV1a cell line (CHO), competition with 1 nM 3H-AVP, 45 minutes at 37° C.; read-out: V1a BINDING AFFINITY (IC50 (nM)).
T1 construct: host or cells: CHO cells
T1 sequence (P37288 whole entry): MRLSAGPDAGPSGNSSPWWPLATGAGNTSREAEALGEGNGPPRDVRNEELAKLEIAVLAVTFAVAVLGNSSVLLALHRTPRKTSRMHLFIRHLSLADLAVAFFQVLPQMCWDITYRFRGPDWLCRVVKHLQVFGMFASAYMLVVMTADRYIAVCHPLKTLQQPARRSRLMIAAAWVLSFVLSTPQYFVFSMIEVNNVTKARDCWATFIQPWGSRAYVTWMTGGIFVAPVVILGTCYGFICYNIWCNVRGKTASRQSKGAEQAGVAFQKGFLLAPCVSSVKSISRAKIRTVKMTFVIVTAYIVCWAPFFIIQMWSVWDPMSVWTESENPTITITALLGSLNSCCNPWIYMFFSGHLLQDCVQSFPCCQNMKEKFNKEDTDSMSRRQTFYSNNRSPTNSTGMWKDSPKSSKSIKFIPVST
Method: Human Vasopression V1a Receptor Binding Assay.
A cell line expressing the human V1a receptor in CHO cells (henceforth referred to as the hV1a cell line) was obtained from Dr. Michael Brownstein, NIMH, Bethesda, Md., USA. The hV1a cDNA sequence is described by Thibonnier et al., Journal of Biological Chemistry, 269, 3304-3310 (1994), and the expression method was the same as described by Morel et al. (1992). The hV1a cell line was grown in alpha-MEM with 10% fetal bovine serum and 250 ug/ml G418 (Gibco, Grand Island, N.Y., USA). For competitive binding assay, hV1a cells were plated into 6-well culture plate at 1:10 dilution from a confluency flask, and maintained in culture for at least two days. Culture medium was then removed, cells were washed with 2 ml binding buffer (25 mM Hepes, 0.25% BSA, 1×DMEM, PH=7.0). To each well, 990 μl binding buffer containing 1 nM 3H-AVP was added, and followed by 10 μl series diluted Example compounds dissolved in DMSO. […] 100 nM cold AVP (Sigma) was used to assess non-specific binding. Cells were incubated for 45 minutes at 37° C., assay mixture was removed and each well was washed three times with PBS (pH=7.4). 1 ml 2% SDS was added per well and plates were let sit for 30 minutes. The whole content in a well was transferred to a scintillation vial. Each well was rinsed with 0.5 ml PBS which was then added to the corresponding vial. Scintillation fluid (Ecoscint, National Diagnostics, Atlanta, Ga.) was then added at 3 ml per vial. Samples were counted in a liquid scintillation counter (Beckman LS3801). IC50 values were calculated by Prism Curve fitting software.
All of the alkanedioic esters and amides exemplified in the foregoing examples were tested in this assay described of Example 201.
With `CC(C)(C)OC(=O)C(C(=O)NCc1cccc(C(F)(F)F)c1)N1C(=O)[C@@H](N2C(=O)OC[C@@H]2c2ccccc2)[C@H]1/C=C/c1ccccc1` (mixture of isomers) [Example 18, 2(RS)-(tert-Butoxycarbonyl)-2-[3(S)-(4(S)-phenyloxazolidin-2-on-3-yl)-4(R)-(2-styryl)azetidin-2-on-1-yl]acetic acid N-(3-trifluoromethylbenzyl)amide] the IC50 was 35 nM.
With `O=C(NCc1cccc(C(F)(F)F)c1)C(C(=O)N1CCC(N2CCCCC2)CC1)N1C(=O)[C@@H](N2C(=O)OC[C@@H]2c2ccccc2)[C@H]1/C=C/c1ccccc1` (mixture of isomers) [Example 37] the IC50 was 5.5 nM.
For `O=C(NCc1cccc(C(F)(F)F)c1)C(C(=O)N1CCN(CCc2ccccc2)CC1)N1C(=O)[C@@H](N2C(=O)OC[C@@H]2c2ccccc2)[C@H]1/C=C/c1ccccc1` (mixture of isomers) [Example 38], the IC50 was less than 25 nM.
Molecule `O=C(NCc1cccc(C(F)(F)F)c1)C(C(=O)NC1CCN(Cc2ccccc2)CC1)N1C(=O)[C@@H](N2C(=O)OC[C@@H]2c2ccccc2)[C@H]1/C=C/c1ccccc1` (mixture of isomers) [Example 39] has an IC50 of 23 nM.
With `CCCCN1CCN(C(=O)C(C(=O)NCc2cccc(C(F)(F)F)c2)N2C(=O)[C@@H](N3C(=O)OC[C@@H]3c3ccccc3)[C@H]2/C=C/c2ccccc2)CC1` (mixture of isomers) [Example 40] the IC50 was 11 nM.
`CC(C)N1CCN(C(=O)C(C(=O)NCc2cccc(C(F)(F)F)c2)N2C(=O)[C@@H](N3C(=O)OC[C@@H]3c3ccccc3)[C@H]2/C=C/c2ccccc2)CC1` (mixture of isomers) [Example 41] gave an IC50 of less than 20 nM.
Molecule `O=C(NCc1cccc(C(F)(F)F)c1)C(C(=O)N1CCN(C2CCCCC2)CC1)N1C(=O)[C@@H](N2C(=O)OC[C@@H]2c2ccccc2)[C@H]1/C=C/c1ccccc1` (mixture of isomers) [Example 42] has an IC50 of less than 20 nM.
`CCCCN1CCN(C(=O)CCC(C(=O)NCc2cccc(C(F)(F)F)c2)N2C(=O)C(N3C(=O)OCC3c3ccccc3)C2C=Cc2ccccc2)CC1` (single isomer, unassigned) [Example 103] gave an IC50 of 0.81 nM.
In the case of `CC(C)N1CCN(C(=O)CCC(C(=O)NCc2cccc(C(F)(F)F)c2)N2C(=O)C(N3C(=O)OCC3c3ccccc3)C2C=Cc2ccccc2)CC1` (single isomer, unassigned) [Example 104], the IC50 is reported as 1.85 nM.
With `CC(C)(C)OC(=O)C[C@@H](C(=O)NCc1cccc(C(F)(F)F)c1)N1C(=O)[C@@H](N2C(=O)OC[C@@H]2c2ccccc2)[C@H]1/C=C/c1ccccc1` [Example 19, 2(S)-(tert-Butoxycarbonylmethyl)-2-[3(S)-(4(S)-phenyloxazolidin-2-on-3-yl)-4(R)-(2-styryl)azetidin-2-on-1-yl]acetic acid N-(3-trifluoromethylbenzyl)amide] the IC50 was 35 nM.
In the case of `CC(C)(C)OC(=O)CC[C@@H](C(=O)NCc1cccc(C(F)(F)F)c1)N1C(=O)[C@@H](N2C(=O)OC[C@@H]2c2ccccc2)[C@H]1/C=C/c1ccccc1` [Example 20, 2(S)-(tert-Butoxycarbonylethyl)-2-[3(S)-(4(S)-phenyloxazolidin-2-on-3-yl)-4(R)-(2-styryl)azetidin-2-on-1-yl]acetic acid N-(3-trifluoromethylbenzyl)amide], the IC50 is reported as 35 nM.
`CCCCN1CCN(C(=O)C[C@@H](C(=O)NCc2cccc(C(F)(F)F)c2)N2C(=O)[C@@H](N3C(=O)OC[C@@H]3c3ccccc3)[C@H]2/C=C/c2ccccc2)CC1` [Example 59] showed an IC50 of less than 100 nM.
`O=C(C[C@@H](C(=O)NCc1cccc(C(F)(F)F)c1)N1C(=O)[C@@H](N2C(=O)OC[C@@H]2c2ccccc2)[C@H]1/C=C/c1ccccc1)NC1CCN(Cc2ccccc2)CC1` [Example 63] showed an IC50 of 1.84 nM.
`O=C(NCc1cccc(C(F)(F)F)c1)[C@H](CC(=O)N1CCN(C2CCCCC2)CC1)N1C(=O)[C@@H](N2C(=O)OC[C@@H]2c2ccccc2)[C@H]1/C=C/c1ccccc1` [Example 66] showed an IC50 of roughly 50 nM.
`O=C(NCc1cccc(C(F)(F)F)c1)[C@H](CC(=O)N1CCN(C2CCCC2)CC1)N1C(=O)[C@@H](N2C(=O)OC[C@@H]2c2ccccc2)[C@H]1/C=C/c1ccccc1` [Example 77] was tested, and the IC50 was less than 100 nM.
`O=C(NCc1cccc(C(F)(F)F)c1)[C@H](CC(=O)N1CCN(CCN2CCCC2)CC1)N1C(=O)[C@@H](N2C(=O)OC[C@@H]2c2ccccc2)[C@H]1/C=C/c1ccccc1` [Example 78] showed an IC50 of less than 100 nM.
Work on `CCN(CC)CCN1CCN(C(=O)C[C@@H](C(=O)NCc2cccc(C(F)(F)F)c2)N2C(=O)[C@@H](N3C(=O)OC[C@@H]3c3ccccc3)[C@H]2/C=C/c2ccccc2)CC1` [Example 81] yielded an IC50 of less than 100 nM.
`O=C(NCc1cccc(C(F)(F)F)c1)[C@H](CC(=O)N1CCCN(Cc2ccccc2)CC1)N1C(=O)[C@@H](N2C(=O)OC[C@@H]2c2ccccc2)[C@H]1/C=C/c1ccccc1` [Example 82] was tested, and the IC50 was less than 50 nM.
Molecule `O=C(C[C@@H](C(=O)NCc1cccc(C(F)(F)F)c1)N1C(=O)[C@@H](N2C(=O)OC[C@@H]2c2ccccc2)[C@H]1/C=C/c1ccccc1)N[C@H]1CCN(Cc2ccccc2)C1` [Example 85] has an IC50 of 5.87 nM.
`O=C(CC[C@@H](C(=O)NCc1cccc(C(F)(F)F)c1)N1C(=O)[C@@H](N2C(=O)OC[C@@H]2c2ccccc2)[C@H]1/C=C/c1ccccc1)NCCN1CCCCC1` [Example 87] gave an IC50 of 15 nM.
In the case of `O=C(NCc1cccc(C(F)(F)F)c1)[C@H](CCC(=O)N1CCN(N2CCCC2)CC1)N1C(=O)[C@@H](N2C(=O)OC[C@@H]2c2ccccc2)[C@H]1/C=C/c1ccccc1` [Example 91], the IC50 is reported as 3.24 nM.
`O=C(NCc1cccc(C(F)(F)F)c1)[C@H](CCC(=O)N1CCN(Cc2ccccc2)CC1)N1C(=O)[C@@H](N2C(=O)OC[C@@H]2c2ccccc2)[C@H]1/C=C/c1ccccc1` [Example 95] showed an IC50 of 1.76 nM.
For `O=C(NCc1cccc(C(F)(F)F)c1)[C@H](CCC(=O)N1CCN(Cc2ccc3c(c2)OCO3)CC1)N1C(=O)[C@@H](N2C(=O)OC[C@@H]2c2ccccc2)[C@H]1/C=C/c1ccccc1` [Example 96], the IC50 was 4.35 nM.
In the case of `CN(C)CCNC(=O)CC[C@@H](C(=O)NCc1cccc(C(F)(F)F)c1)N1C(=O)[C@@H](N2C(=O)OC[C@@H]2c2ccccc2)[C@H]1/C=C/c1ccccc1` [Example 100], the IC50 is reported as less than 100 nM.
With `O=C(NCc1cccc(C(F)(F)F)c1)[C@H](CCC(=O)N1CCN(CC(=O)N2CCCC2)CC1)N1C(=O)[C@@H](N2C(=O)OC[C@@H]2c2ccccc2)[C@H]1/C=C/c1ccccc1` [Example 101] the IC50 was roughly 100 nM.
Work on `CN1CCC(N2CCN(C(=O)CC[C@@H](C(=O)NCc3cccc(C(F)(F)F)c3)N3C(=O)[C@@H](N4C(=O)OC[C@@H]4c4ccccc4)[C@H]3/C=C/c3ccccc3)CC2)CC1` [Example 102] yielded an IC50 of less than 100 nM.
`CN(C)CCCNC(=O)CC[C@@H](C(=O)NCc1cccc(C(F)(F)F)c1)N1C(=O)[C@@H](N2C(=O)OC[C@@H]2c2ccccc2)[C@H]1/C=C/c1ccccc1` [Example 106] gave an IC50 of roughly 100 nM.
Molecule `O=C(CC[C@@H](C(=O)NCc1cccc(C(F)(F)F)c1)N1C(=O)[C@@H](N2C(=O)OC[C@@H]2c2ccccc2)[C@H]1/C=C/c1ccccc1)NC1CCN(Cc2ccccc2)CC1` [Example 107] has an IC50 of less than 50 nM.
`CN(C)CCN(Cc1ccccc1)C(=O)CC[C@@H](C(=O)NCc1cccc(C(F)(F)F)c1)N1C(=O)[C@@H](N2C(=O)OC[C@@H]2c2ccccc2)[C@H]1/C=C/c1ccccc1` [Example 108] showed an IC50 of roughly 100 nM.
For `O=C(CC[C@@H](C(=O)NCc1cccc(C(F)(F)F)c1)N1C(=O)[C@@H](N2C(=O)OC[C@@H]2c2ccccc2)[C@H]1/C=C/c1ccccc1)NCc1cccnc1` [Example 109], the IC50 was roughly 100 nM.
Molecule `O=C(NCc1cccc(C(F)(F)F)c1)[C@H](CCC(=O)N1CCN(CCC2CCCCC2)CC1)N1C(=O)[C@@H](N2C(=O)OC[C@@H]2c2ccccc2)[C@H]1/C=C/c1ccccc1` [Example 111] has an IC50 of 1.31 nM.
`O=C(NCc1cccc(C(F)(F)F)c1)[C@H](CCC(=O)N1CCN(CCN2CCOCC2)CC1)N1C(=O)[C@@H](N2C(=O)OC[C@@H]2c2ccccc2)[C@H]1/C=C/c1ccccc1` [Example 112] gave an IC50 of 1.34 nM.
For `O=C(NCc1cccc(C(F)(F)F)c1)[C@H](CCC(=O)N1CCN(CC2CCCCC2)CC1)N1C(=O)[C@@H](N2C(=O)OC[C@@H]2c2ccccc2)[C@H]1/C=C/c1ccccc1` [Example 120], the IC50 was 0.75 nM.
In the case of `O=C(NCc1cccc(C(F)(F)F)c1)[C@@H](CCC(=O)N1CCC(N2CCCCC2)CC1)N1C(=O)[C@@H](N2C(=O)OC[C@@H]2c2ccccc2)[C@H]1/C=C/c1ccccc1` [Example 135], the IC50 is reported as roughly 50 nM.
For `O=C(NCc1cccc(C(F)(F)F)c1)[C@@H](CCC(=O)N1CCN(CCc2ccccc2)CC1)N1C(=O)[C@@H](N2C(=O)OC[C@@H]2c2ccccc2)[C@H]1/C=C/c1ccccc1` [Example 136], the IC50 was 11 nM.
For `CCCCN1CCN(C(=O)CC[C@H](C(=O)NCc2cccc(C(F)(F)F)c2)N2C(=O)[C@@H](N3C(=O)OC[C@@H]3c3ccccc3)[C@H]2/C=C/c2ccccc2)CC1` [Example 137], the IC50 was 17 nM.
With `CC(C)N1CCN(C(=O)CC[C@H](C(=O)NCc2cccc(C(F)(F)F)c2)N2C(=O)[C@@H](N3C(=O)OC[C@@H]3c3ccccc3)[C@H]2/C=C/c2ccccc2)CC1` [Example 138] the IC50 was 21 nM.
